Patent US7906620B2, “Tumor associated antigen, peptides thereof, and use of same as anti-tumor vaccines” (Yeda Research and Development Co. Ltd., priority 2002, dated 2011)

What was measured:
[1] = tested on: peptide loaded on labeled RMA-S/HHD; assay: Immunogenicity of peptides in HHD mice: vaccination with peptide-loaded RMA-S/HHD/B7.1, cytolytic assay on peptide-loaded targets; format: in vivo; conditions: for Score: immunogenic score: ratio of specific lysis, specific peptide vs tyrosinase peptide loaded on RMA-S/HHD, average of two experiments, positive above 125%; for antigenic / immunogenic in HHD mice: mouse, in vivo
Method: FIG. 4 is a graph of the results of in vitro cytolytic assays. Seven peptides are immunogenic. Peptides were loaded on RMA-S/HHD/B7.1, washed and irradiated. HHD mice were immunized three times as described in the materials and methods section in Example 1. In vitro cytolytic assays were performed on the relevant peptide as target and on an irrelevant peptide. The score was deduced from the ratio of the specific lysis that were obtained. The positive peptides (above 125%) are marked by arrows. Peptides 1-6, 3-5 and 3-7 are derived from “Human 1-8D gene”.
(§1) Vaccination. HHD mice were immunized i.p. 3 times at 7-day intervals with 2×10^6 irradiated (5000 rad) tumor cells, or irradiated peptide-loaded RMA-S/HHD/B7.1 transfectants. Spleens were removed on day 10 after the last immunization, and splenocytes were restimulated in vitro, either with irradiated tumor cells or with one third of the lymphocytes pre-pulsed with 100 μM synthetic peptides in opti-MEM (Life Technologies) for 2 hr at 37° C., 5% CO2. Restimulated lymphocytes were cultured in RPMI-HEPES medium containing 10% FCS, 2 mM glutamine, combined antibiotics, 1 mM sodium pyruvate, 25 mM HEPES, 5×10^−5M PME and 1% NEAA for 5 days. Viable cells (effectors) were separated by Lympholyte-M (Cedarlane, Hornby, Canada) gradient, resuspended and admixed at different ratios with 5,000 ^35S-methionine-labeled target cells. Cytolytic assays were carried out as described previously in Carmon et al., 2000. Extracts of tumor peptides or normal colon peptides were prepared from a pool of 6 post-surgical colon carcinoma specimens as described before Carmon et al., 2000.
The antigenic peptides were tested for their specific immunogenicity in HHD mice. HHD mice were vaccinated with RMA-S/HHD/B7.1 cells loaded with each of the peptides (listed in Table 3), their spleens were removed, and resensitized in vitro with synthetic peptides for four days. On the fifth day, a cytolytic assay was performed on two targets, either the peptide itself loaded on labeled RMA-S/HHD or the tyrosinase peptide as a negative control. The ratio of specific lysis between specific and tyrosinase peptides was defined as “immunogenic score”. This experiment was repeated twice and the average score of each of the antigenic peptides is specified (Table 3 and FIG. 4). The horizontal line in FIG. 4 represents the limit of 95% significance as defined by assuming normal distribution of scores.

HLA-A2.1 = target: T1, HLA-A2.1 (Homo sapiens, UniProt P04439, D140Y/D185E/D98H/E176V/E277Q/G131W/G231S/I119V/I121R/I166T/I218V/L300P/L318F/N151K/N90K/P208A/P217A/Q86G/Q94H/R138H/R169H/T345S); assay: T2 stabilization assay (peptide binding to HLA-A2.1); conditions: acid stripped T2 cells, peptide and recombinant β2m, BB7.2 mAb, FACS
T1 construct: endogenous in cells; host or cells: T2 cells (TAP-2-deficient lymphoblastoid line)
Method: T2 cells were acid stripped and incubated with the indicated peptide and recombinant β2m or with β2m alone as a negative control. FIG. 5D is the tyrosinase peptide as the positive control. Cells were stained with BB7.2 mAb and analyzed by FACS. The number of positive cells above control level is indicated for each of the peptides.
(§2) Intrigued by this finding, the laboratory of the present inventors focused on the 1-8D peptides. Peptide binding to HLA-A2.1 was verified by a T2 stabilization assay (Firat et al., 1999). […] 1-8D peptides were next tested for induction of anti-HCT/HHD CTL responses by vaccinating HHD mice with the 1-8D peptides (Carmon et al., 2000).

HCT/HHD cells [2] = assay: Anti-HCT/HHD CTL response after vaccination of HHD mice with 1-8D peptides; format: in vivo; conditions: for lysis of HCT/HHD by peptide-induced CTL: HHD mice immunized with peptide loaded on RMA-S/HHD/B7.1; for ranking as vaccine against HCT/HHD (in vitro cytolytic capacity): mouse, in vivo
Method: FIG. 6 is a graph showing that the 1-8D peptides can mount anti-HCT/HHD CTL responses. HHD mice were immunized with HCT/HHD/B7.1 and with peptide loaded on RMA-S/HHD/B7.1. In vitro cytolytic assays were performed using HCT/HHD cells as targets. The specific lysis at E:T in 50:1 ratio of a representative experiment out of three is shown.
as §1, §2

[3] = tested on: EL4/HHD/1-8D transfected cells; assay: Lysis of 1-8D transfectants by CTL from peptide-immunized HHD mice; format: in vivo; conditions: high background lysis of EL4/HHD
Method: FIGS. 8A-8C are graphs that show 1-8D peptides 1-6 (FIG. 8A), 3-5 (FIG. 8B), and 3-7 (FIG. 8C) mount CTL responses that lyse 1-8D transfectants. Each peptide was loaded on RMA-S/HHD/B7.1 and used to immunize HHD mice. In vitro cytolytic assays were performed using EL4/HHD cells (open circles) and EL4/HHD/1-8D transfected cells (dark circles) as a target. The specific lysis of a representative experiment out of three is shown.
The 1-8D peptides are presented by HHD molecules on HCT/HHD cells. […] The plasmid was stably transfected into EL4 cells together with an HHD plasmid. HHD mice were immunized with the 1-8D peptides and a cytolytic assay was performed. The susceptibility of EL4/HHD/1-8D transfectant and the parental EL4/HHD cells to be lysed by anti-1-8D lymphocytes were compared. FIG. 8A-8C summarizes the results of these cytolytic experiments.

HCT/HHD cells [4] = assay: Adoptive transfer of anti-1-8D peptide lymphocytes to nude mice bearing HCT/HHD footpad tumors; format: in vivo, CD1-nude mice; conditions: for day from which retardation in tumor growth is significant (P<0.05): 10^7 restimulated lymphocytes i.v. three days post challenge, IL-2, one tailed student t-test
Method: FIG. 9 is a graph showing that nude mice were challenged in the foot pad with HCT/HHD cells. Lymphocyte from vaccinated HHD mice were transferred together with IL-2 to the tumor bearing mice and the growth of the tumor was monitored twice a week.
Adoptive transfer. CD1-nude mice were challenged in the footpad with 3×10^6 HCT/HHD cells. Three days later, 10^7 viable re-stimulated effector cells were injected i.v. to the tail vein. One thousand units of IL-2, was injected i.p. twice a day for 7 consecutive days post transfer. Tumor growth was monitored by measuring the diameter of the footpad with calipers. Mice were sacrificed when one of the tumor diameters reached 10 mm.
The anti-tumor efficacy of anti-1-8D peptide CTL was evaluated next. A transfer model, in which HCT/HHD cells were inoculated to the footpads of nude mice, was established. Three days post footpad challenge, in vitro restimulated HHD lymphocytes were transferred i.v. and the tumor growth was monitored.

peptide pulsed T2 cells = assay: In vitro priming of human CTL precursors with 1-8D peptides; format: cell-based; conditions: for activating peripheral CTLp to lyse target cells in a peptide specific manner: PBMC of two normal donors, after 4 consecutive stimulations
Method: FIG. 10 are graphs showing PMBC from 4 donors checked for existence of CTL precursors. Left hand panel-peptide 1-6 stimulated CTLp. Middle Panel-peptide 3-5 stimulated CTLp. Right hand panel-peptide 3-7 stimulated CTLp. […] PBMC were supplemented with IL-7, and two days later IL-2 was added and renewed every three days. The rest of the stimulations were done every 7 days over peptide pulsed monocytes. Seven days after the third stimulation, lymphocytes were harvested and a cytolytic assay was performed using peptide pulsed (closed squares, closed circles, open triangles, X signs) or non-pulsed T2 cells (open circles) as targets. Closed squares represent CTLp from donor A, closed circles represent CTLp from donor B, open triangles represent CTLp from donor C, Xs represent CTLp from donor D, and open circles represent non-pulsed T2 cells.
In vitro priming of human CTL. Leukopheresis products of four healthy donors were obtained from Barzilai Medical Center (Ashkelon, Israel) according to Declaration of Helsinki Principles. PMBC were isolated by centrifugation on Ficoll-Plaque Plus gradients (Amersham, Sweden). The procedure was carried out according to Thurner et al., with minor modifications. Briefly, in vitro priming was done over autologous DC that were prepared from monocytes by IL-4 and GM-CSF treatment and matured with a IL-1β, IL-6, TNF-α and PGE2 cocktail. DC were pulsed with the synthetic peptides and PBMC were supplemented with IL-7. Two days later IL-2 was added and renewed every three days. The rest of the stimulations were done every 7 days over peptide pulsed monocytes. […]

EL4/HHD cells = assay: Immunogenicity of PSGR-derived peptides in HHD mice (peptide-loaded dendritic cells); conditions: mouse, in vivo
Method: FIGS. 15A and 15B are graphs showing immunogenicty of PSGR-derived peptides in HHD mice. The mice were immunized i.v. three time with 1×10^6 syngeneic dendritic cells (DCs) loaded with either PSGR-1 or PSGR-6 peptides. Spleens were removed on day 10 after the last immunization, and splenocytes were re-stimulated in vitro by 100 μM PSGR-1 (FIG. 15A) or PSGR-6 (FIG. 15B) derived peptides in OPTIMEM for 2 h at 37° C., 5% CO2, followed by restimulation of lymphocytes for 4 more days in RPMI-HEPES. CTL assays were performed on day 5 with individual PSGR-1 or PSGR-6 derived peptides loaded on EL4/HHD cells as targets. Non-relevant PAP derived peptide-loaded EL4/HHD cells were used as negative controls. 100:1, 50:1, 25:1, 12.5:1 effector-to-target ratios are shown.
The immunogenicity of the peptides, namely their potential to induce T cell responses, was subsequently examined in an in vivo model. A strain of β2 microglobulin (β2m) HLA-A2.1 Monochain Transgenic, H-2D^b−/−Xβ2m^−/− double knockout mice (HHD mice) was used. Upon vaccination of these mice, a repertoire of human HLA-A2.1 restricted CTLs is produced. The lysis patterns of each of the individual peptides loaded on target cells were first evaluated following immunization with syngeneic dendritic cells pulsed with pools of 2-4 synthetic peptides derived from each examined protein.

[5] = tested on: peptide loaded on labeled RMA-S/HHD; conditions: F. A. Lemonnier, unpublished; cited from earlier work
[6] = healthy donor PBMC, peptide pulsed vs non-pulsed T2 targets

| Sequence | Score [1] | antigenic / immunogenic in HHD mice [1] | binding to HLA-A2.1 (stabilization of HLA-A2 on T2 cells) (HLA-A2.1) | lysis of HCT/HHD by peptide-induced CTL (HCT/HHD cells [2]) | ranking as vaccine against HCT/HHD (in vitro cytolytic capacity) (HCT/HHD cells [2]) | lysis of 1-8D transfectant compared to EL4/HHD cells [3] | day from which retardation in tumor growth is significant (P<0.05) (HCT/HHD cells [4]) [days] | activating peripheral CTLp to lyse target cells in a peptide specific manner (peptide pulsed T2 cells) | CTL activity of stimulated CTLp, donor A (peptide pulsed T2 cells; [6]) | CTL activity of stimulated CTLp, donor B (peptide pulsed T2 cells; [6]) | CTL activity of stimulated CTLp, donor C (peptide pulsed T2 cells; [6]) | level of immunogenicity in HHD mice (EL4/HHD cells) | effect on in vivo growth of HCT/HHD (HCT/HHD cells [4]; adoptive transfer, nude mice) | CTL activity of stimulated CTLp, donor D (peptide pulsed T2 cells; [6]) | immunogenicity in the HHD model [5] |
| --- | --- | --- | --- | --- | --- | --- | --- | --- | --- | --- | --- | --- | --- | --- | --- |
| EMKEEQEV (listed as Homo sapiens) [Peptide 1-6, Human 1-8D gene from interferon inducible gene 20-28] | 181.3 | antigenic and immunogenic | stabilize HLA-A2 on T2 cells | lyse the human colon carcinoma line HCT-15-HHD | intermediate | better lysed | 13 | incompetent | not | low yet specific CTL activity | not |  |  |  |  |
| GLEKAHFWV (listed as Homo sapiens) [PSGR-6, PSGR start position 18] |  |  |  |  |  |  |  |  |  |  |  | low |  |  |  |
| KCLNIWALI (listed as Homo sapiens) [Peptide 3-7, Human 1-8D and 1-8U genes from interferon inducible genes 103-111] | 487.5 | antigenic and immunogenic | stabilize HLA-A2 on T2 cells | lyse the human colon carcinoma line HCT-15-HHD | least effective | better lysed | 13 | highly efficient | high CTL activity | high CTL activity | low activity |  | least effective | low activity |  |
| LILGIFMTI (listed as Homo sapiens) [Peptide 3-5, Human 1-8D gene from interferon inducible gene 110-118] | 176.7 | antigenic and immunogenic | stabilize HLA-A2 on T2 cells | lyse the human colon carcinoma line HCT-15-HHD | most effective | roughly equal | 11 | incompetent |  | low yet specific CTL activity | not and low yet specific CTL activity |  |  |  |  |
| TLNAWVKVV [HIV derived peptide] |  |  |  |  |  |  |  |  |  |  |  |  |  |  | weak immunogen |
